Measured values from publication PMC11192711, “Automated radiosynthesis and preclinical evaluation of two new PSMA-617 derivatives radiolabelled via [^18F]AlF^2+ method” (EJNMMI Radiopharmacy and Chemistry, 2024).

Tests used:
[1] = tested on: LNCaP tumour-bearing NSG mice; experiment: PET/CT in vivo biodistribution and tumour uptake in subcutaneous LNCaP prostate cancer xenograft model; settings: n = 4; for Bone (SUV mean) / Brain (SUV mean) / Colon (SUV mean) / Gall bladder (SUV mean) / Heart (SUV mean) / Kidney (SUV mean) / Liver (SUV mean) / Lung (SUV mean) / Muscle (SUV mean) / Salivary gland (SUV mean) / Small instestine (SUV mean): LNCaP NSG male mice, i.v., PET/CT; for ratio between tumour and muscle (tumour SUV max/muscle SUV mean) / uptake in the tumour expressed as SUV max: LNCaP tumour, NSG mice
Procedure: The uptake of [^18F]F-PSMA-1007 and [^18F]F-PSMA-617-NODA ([^18F]1) was compared in vivo in a xenograft model of human prostate cancer obtained using LNCaP cells which are PSMA positive, as confirmed by real time PCR-analysis (Additional file 1: S69A). LNCaP tumour-bearing NSG mice were injected i.v. with either [^18F]F-PSMA-1007 or [^18F]F-PSMA-617-NODA (~ 3.8 MBq/mouse, ~ 20 pmol for [^18F]F-PSMA-1007 and ~ 50 pmol [^18F]1). Radiotracer uptake was assessed after 10, 60 and 120 min post injection by whole-body PET/CT acquisitions.
Total body biodistribution of [^18F]F-PSMA-1007, [^18F]F-PSMA-617-NODA and [^18F]F-PSMA-617-RESCA was evaluated in vivo using imaging PET/CT. [^18F]F-PSMA-617-NODA uptake was compared to that of the [^18F]F-PSMA-1007 in a PSMA positive prostate tumour xenograft model (LNCaP). [^18F]F-PSMA-617-NODA and [^18F]F-PSMA-617-RESCA uptake were also evaluated using an orthotopic glioma model (Gli36ΔEGFR).
Animal experiments were carried out in compliance with institutional guidelines for the care and the use of experimental animals, which have been authorized by the Italian Ministry of Health (n° 378/2019-PR and 817/2021-PR). The animals were housed at constant temperature (23 °C) and relative humidity (40%) under a regular light/dark cycle with food and water available ad libitum. Seven to eight weeks old male NSG mice (Charles River Laboratories Italia s.r.l., Italy) were subcutaneously inoculated in the right flank with 5 × 10^6 of PSMA‐positive human prostate cancer cells (LNCaP) suspended in matrigel (1: 1, total volume 200 ul). The growth tumour was monitored periodically with calliper and tumour volume was calculated using the following formula: […]
When the tumour volume was about 230.8 ± 60.3 mm^3 (approximately 15 days after tumour cells inoculation), 4 animals performed an in vivo biodistribution of [^18F]F-PSMA-1007 and [^18F]F-PSMA-617-NODA, on successive but non-consecutive days, using PET/CT.
Mice were injected into a tail vein with 3.8 ± 0.1 MBq of [^18F]F-PSMA-1007, 4.0 ± 0.2 MBq of [^18F]F-PSMA-617-NODA ([^18F]1) and 3.8 ± 0.1 MBq of [^18F]F-PSMA-617-RESCA ([^18F]2), respectively.
Total body PET/CT acquisitions were performed using PET/CT tomographs dedicated to small animals, X-ß-CUBE (Molecubes, Gent, Belgium) after 10, 60 and 120 min from tracer injection. Each acquisition lasted 30 min and mice were maintained anesthetized (4% isoflurane in induction and 2% in maintenance in air) during acquisition.
Image quantification analysis was performed with PMOD 4.105 software (Zurich, Switzerland). Volumes of interest (VOIs) were drawn on peripheral organs (tumour, thoracic muscle, heart, liver, kidney, salivary glands, lung, small intestine, colon, bone, gall bladder) and on the healthy brain using CT images. For the glioma model, PET/CT images were co-registered to MRI images and two different VOIs were defined: (1) a control VOI covering the healthy left striatum (volume 4 mm^3) was drawn on the axial MR images, adjusted on the other imaging planes and then copied on the PET images of each mouse; (2) a second glioma-covering VOI was drawn in the tumour-affected brain hemisphere and centered on mice lesions.
For quantification, Standardized Uptake Value (SUV) was calculated according to the formula:
SUV = organ concentration activity [MBq/g]/(injected activity [MBq]/animal weight [g]).
The data were expressed as standardized-uptake-values (SUVmean and SUVmax) and as tumour-to-muscle (T/M) and tumour-to-blood (T/B) ratio in PCa model and as tumour-to-contralateral (T/Cl) ratio in glioma model.

[2] = Stability in final solution (analytical HPLC and radio-TLC); assay type: physicochemical; settings: up to four hours after end of radiosynthesis, room temperature, HPLC and radio-TLC
Procedure: Chemical and radiochemical stability in the final solution were tested by analytical HPLC and radio-TLC (Additional file 1: S37–S41); samples of the purified product were analyzed up to four hours after the end of radiosynthesis, at time intervals of two hours and storing the vial at room temperature.
Stability in solution of [^18F]F-PSMA-617-NODA ([^18F]1) and [^18F]F-PSMA-617-RESCA ([^18F]2) were evaluated injecting in RP-HPLC (for experimental conditions, see sections “(((S)-5-((S)-2-((1R,4S)-4-((4-(4,7-bis(carboxymethyl)-1,4,7-triazonan-1-yl)butanamido)methyl)cyclohexane-1-carboxamido)-3-(naphthalen-2-yl)propanamido)-1-carboxypentyl)carbamoyl)-L-glutamic acid [^18F] aluminium fluoride ([^18F] 1)” and “(((S)-5-((S)-2-((1R,4S)-4-((2-(4-((((1R,2R)-2-(bis(carboxymethyl)amino)cyclohexyl)(carboxymethyl)amino)methyl)phenyl)acetamido)methyl)cyclohexane-1-carboxamido)-3-(naphthalen-2-yl)propanamido)-1-carboxypentyl)carbamoyl)-L-glutamic acid [18F] aluminium fluoride ([18F] 2)”) samples (20 µl) of respective radiopharmaceutical solutions at t = 0 (EOS), after 2 h and after 4 h. Moreover, ≈ 7.5 kBq of [^18F]1 or [^18F]2 solution were deposited on TLC sheet. The TLC was imaged using Cyclone® Plus Phosphor Scanner and software OptiQuant™.

O=C(O)CCC(NC(=O)NC(CCCCNC(=O)C(Cc1ccc2ccccc2c1)NC(=O)C1CCC(CNC(=O)CCCN2CCN(CC(=O)O)CCN(CC(=O)O)CC2)CC1)C(=O)O)C(=O)O.[18F][Al] [[^18F]F-PSMA-617-NODA, (((S)-5-((S)-2-((1R,4S)-4-((4-(4,7-bis(carboxymethyl)-1,4,7-triazonan-1-yl)butanamido)methyl)cyclohexane-1-carboxamido)-3-(naphthalen-2-yl)propanamido)-1-carboxypentyl)carbamoyl)-L-glutamic acid [^18F] aluminium fluoride]
Bone (SUV mean) ([1]; 10 min p.i.): 0.20 ± 0.12
Brain (SUV mean) ([1]; 10 min p.i.): 0.05 ± 0.003
Colon (SUV mean) ([1]; 10 min p.i.): 0.30 ± 0.08
Gall bladder (SUV mean) ([1]; 10 min p.i.): 0.27 ± 0.05
Heart (SUV mean) ([1]; 10 min p.i.): 0.30 ± 0.03
Kidney (SUV mean) ([1]; 10 min p.i.): 8.50 ± 1.40
Liver (SUV mean) ([1]; 10 min p.i.): 0.22 ± 0.02
Lung (SUV mean) ([1]; 10 min p.i.): 0.31 ± 0.04
Muscle (SUV mean) ([1]; 10 min p.i.): 0.15 ± 0.05
Salivary gland (SUV mean) ([1]; 10 min p.i.): 0.49 ± 0.05
Small instestine (SUV mean) ([1]; 10 min p.i.): 0.23 ± 0.05
Bone (SUV mean) ([1]; 60 min p.i.): 0.23 ± 0.11
Brain (SUV mean) ([1]; 60 min p.i.): 0.03 ± 0.01
Colon (SUV mean) ([1]; 60 min p.i.): 0.17 ± 0.02
Gall bladder (SUV mean) ([1]; 60 min p.i.): 0.14 ± 0.07
Heart (SUV mean) ([1]; 60 min p.i.): 0.09 ± 0.02
Kidney (SUV mean) ([1]; 60 min p.i.): 6.39 ± 2.14
Liver (SUV mean) ([1]; 60 min p.i.): 0.10 ± 0.02
Lung (SUV mean) ([1]; 60 min p.i.): 0.14 ± 0.01
Muscle (SUV mean) ([1]; 60 min p.i.): 0.04 ± 0.01
Salivary gland (SUV mean) ([1]; 60 min p.i.): 0.18 ± 0.08
Small instestine (SUV mean) ([1]; 60 min p.i.): 0.16 ± 0.05
Bone (SUV mean) ([1]; 120 min p.i.): 0.25 ± 0.12
Brain (SUV mean) ([1]; 120 min p.i.): 0.02 ± 0.01
Colon (SUV mean) ([1]; 120 min p.i.): 0.13 ± 0.06
Gall bladder (SUV mean) ([1]; 120 min p.i.): 0.03 ± 0.02
Heart (SUV mean) ([1]; 120 min p.i.): 0.03 ± 0.01
Kidney (SUV mean) ([1]; 120 min p.i.): 2.43 ± 1.24
Liver (SUV mean) ([1]; 120 min p.i.): 0.04 ± 0.01
Lung (SUV mean) ([1]; 120 min p.i.): 0.04 ± 0.01
Muscle (SUV mean) ([1]; 120 min p.i.): 0.02 ± 0.01
Salivary gland (SUV mean) ([1]; 120 min p.i.): 0.04 ± 0.02
Small instestine (SUV mean) ([1]; 120 min p.i.): 0.06 ± 0.03
ratio between tumour and muscle (tumour SUV max/muscle SUV mean) ([1]; 60 min p.i.): 30.29 ± 10.46
uptake in the tumour expressed as SUV max ([1]; 60 min p.i.): 1.11 ± 0.24
ratio between tumour and muscle (tumour SUV max/muscle SUV mean) ([1]; 120 min p.i.): 83.53 ± 48.71
uptake in the tumour expressed as SUV max ([1]; 120 min p.i.): 0.94 ± 0.12
Chemical and radiochemical stability in the final solution ([2]; listed as [^18F]1): stable and no loss of radioactivity due to radiolytic degradation and aluminum fluoride release were detected
Chemical and radiochemical stability in the final solution ([2]; listed as [^18F]PSMA-617-NODA): neither the release of [^18F]AlF^2+ in solution, nor the formation of other degradation by-products was noticed
